Experimental data as given in patent publication US20060194769A1, “Small molecules that reduce fungal growth” (University of Vermont and State Agricultural College, priority 2005, published 2006).

Legend:
[1] = system: Candida albicans; experiment: Quantification of inhibition of the budded-to-hyphal-form transition and synergy assay in 10% serum media; assay type: cell-based; settings: 37° C., synergy assay: two molecules (100 μM) added together, normalized to % hyphae formed when no molecule was added
Description: Cultures of Candida albicans were grown as described in Toenjes K. A. et al. (Antimicrobial Agents and Chemotherapy, 49(3):963-972, 2005). To induce hyphal growth, stationary-phase cultures were diluted into 5 ml of either YPD (1% yeast extract, 2% peptone, and 2% dextrose) plus 10% (vol/vol) fetal calf serum, Spider medium, Lee's medium (Lee, K. et al., Sabouraudia, 13:148-153, 1975), or M199 pH 8 medium (Sigma-Aldrich, St. Louis, Mo.) and grown at 37° C. with shaking at 250 rpm.
Quantification of inhibition of the budded-to-hyphal-form transition was accomplished by counting the numbers of individual budded cells versus the number of hyphae in the population. More than 100 cells were counted for each assay in duplicate and all assays were repeated four times. Individual hyphae were counted as one cell, although the hyphae usually consisted of multiple individual hyphal cells. The percentage of hyphae reported was normalized to the percentage of hyphae formed when no molecule was added.
For the synergy assay, two different molecules (100 μM) were added together and the assay was performed in 10% serum media to induce hyphal formation.

[2] = system: tumor; settings: cited from earlier work

In the case of `CN1CCN(C2=Nc3cc(Cl)ccc3Nc3ccccc32)CC1` [Clozapine, 8-Chloro-11-(4-methyl-1-piperazinyl)-5H-dibenzo[b,e][1,4]-diazepine], the “% hyphae in 10% serum” value [1] is reported as 33%.

For `O=C(Nc1ccccc1)c1cc([N+](=O)[O-])ccc1Cl` [GW9662, 2-Chloro-5-nitro-N-phenylbenzamide], the “% hyphae in 10% serum” value [1] was 59%.

For `CCOC(=O)C1=C(N)Oc2ccc(Br)cc2C1C(C#N)C(=O)OCC` (centres unmarked) [HA14-1, Ethyl[2-amino-6-bromo-4-(1-cyano-2-ethoxy-2-oxoethyl)]-4H-chromene-3-carboxylate], the “% hyphae in 10% serum” value [1] was 34%.

For `CCC(C)C(COC(Cc1ccccc1)C(=O)NC(CCS(C)(=O)=O)C(=O)OC(C)C)NCC(N)CS` [L-744,832, (2S)-2-[[(2S)-2-[(2S,3S)-2-[(2R)-2-Amino-3-mercaptopropyl]amino]-3-methylpentyl]oxy]-1-oxo-3-phenylpropyl]amino]-4-(methylsulfonyl)-butanoic Acid 1-Methylethyl Ester], the anti-tumor activity [2] is given as “potent anti-tumor activity”.

In the case of `OCc1ccc(-c2nn(Cc3ccccc3)c3ccccc23)o1` [YC-1, 3-(5′-Hydroxymethyl-2′-furyl)-1-benzylindazole], the anti-tumor activity [2] is given as “potent anti-tumor activity”.
